Experimental data: patent US20230035057A1, “METHOD OF TREATMENT OF SLEEP APNEA” (PRIMAVERA BIOSCIENCES, INC., priority 2021, published 2023)

System: sleep apnea patient
Assay: Oxygen saturation (SpO2) monitoring during sleep with Wellure's O2Ring in a sleep apnea patient
Format: in vivo
Excerpt: FIG. 1 is a diagram showing sleep apnea patient's oxygen saturation levels (SpO2). Oxygen saturation levels (SpO2) in the blood during sleep were monitored using Wellure's O2Ring.
(§1) Oxygen saturation levels (SpO2) in the blood during sleep were monitored using Wellure's O2Ring.
as §1

## CN[C@@H](C)[C@H](O)c1ccccc1 [ephedrine]
FIG. 2, 25 mg ephedrine one hour before bed plus Avinol PM, in the first three hours, came back afterwards
  breathing problems observed in FIG. 1: greatly reduced
FIG. 2, 25 mg of ephedrine one hour before going to bed along with sleeping pill Avinol PM just before going to bed
  sleep apnea patient's oxygen saturation levels (SpO2): improved
FIG. 3, 25 mg ephedrine one hour before bed plus one tablet Avinol PM just before bed, another 25 mg ephedrine three hours after going to bed
  sleep apnea patient's oxygen saturation levels (SpO2): improved
General statement, dose not given
  breathing problems caused by sleep apnea: reduces
